Experimental findings from US8735406B2, “8-oxodihydropurine derivative” (Dainippon Sumitomo Pharma Co., Ltd., priority 2009, dated 2014) are described below.

The target of this assay is T1, FAAH (Rattus norvegicus, UniProt P97612).
T1 construct: Preparation of Rat Brain Membranes Preparations (FAAH Enzyme Solution); from tissue; host or cells: rat cerebrum (brain membrane preparation)
T1 sequence (P97612 1-579): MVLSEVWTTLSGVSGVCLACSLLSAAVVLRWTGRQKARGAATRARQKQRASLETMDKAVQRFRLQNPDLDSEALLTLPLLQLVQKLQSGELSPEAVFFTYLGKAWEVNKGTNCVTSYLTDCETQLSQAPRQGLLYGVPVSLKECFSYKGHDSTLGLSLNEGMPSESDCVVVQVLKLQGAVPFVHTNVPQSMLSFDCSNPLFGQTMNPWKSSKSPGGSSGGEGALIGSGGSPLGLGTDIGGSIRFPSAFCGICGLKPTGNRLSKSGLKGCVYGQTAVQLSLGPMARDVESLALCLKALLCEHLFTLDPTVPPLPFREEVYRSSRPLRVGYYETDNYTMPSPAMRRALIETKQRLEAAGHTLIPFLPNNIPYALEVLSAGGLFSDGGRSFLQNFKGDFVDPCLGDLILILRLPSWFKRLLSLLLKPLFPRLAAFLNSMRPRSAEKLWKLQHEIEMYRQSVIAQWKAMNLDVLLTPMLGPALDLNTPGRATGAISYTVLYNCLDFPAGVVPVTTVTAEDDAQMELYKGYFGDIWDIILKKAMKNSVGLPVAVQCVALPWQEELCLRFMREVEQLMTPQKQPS
Put plainly: Determination of FAAH inhibitory activity in rat (rat brain membrane preparations, [3H]-anandamide hydrolysis). The class given is biochemical. The following applies: rat brain membrane preparations; for inhibition at 0.1 µM: 100 nM test substance, read-out: FAAH Inhibition, Inhibition Rate at 100 nM; for pIC50: test substance 0.1 nM to 1 μM, read-out: FAAH Inhibition IC50. The procedure, abridged: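 Rat cerebrum membranes (100 μg/mL protein) preincubated 10 min at 37 °C with compound (1% DMSO) in pH 7.6 Tris buffer with 1.5% BSA. Substrate 2 nM [3H]-anandamide plus 2 μM anandamide added for 10 min at 37 °C. [3H]-ethanolamine in the aqueous phase after chloroform/methanol extraction was scintillation counted; IC50 over 0.1 nM–1 μM.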

pIC50: −log10 of the molar value.

Consider `CC(=O)c1cccc(-c2ncc3c(n2)n(C(=O)N2CCCC2)c(=O)n3C)c1` [Example 238, 2-(3-Acetylphenyl)-7-methyl-9-(pyrrolidin-1-ylcarbonyl)-7,9-dihydro-8H-purine-8-one], for which the inhibition (usually the relative decrease from the control value, in per cent) at 0.1 µM was determined as 84% and the pIC50 (usually −log10 of the IC50, conventionally taken in molar units) is 7.24.
In the case of `Cn1c(=O)n(C(=O)N2CCCC2)c2nc(-c3ccc(-c4ccccc4)cc3)ncc21` [Example 239, 2-(Biphenyl-4-yl)-7-methyl-9-(pyrrolidin-1-ylcarbonyl)-7,9-dihydro-8H-purine-8-one], the inhibition at 0.1 µM came out at 89% and the pIC50 was 7.28.
As for `Cn1c(=O)n(C(=O)N2CCCC2)c2nc(/C=C/c3ccccc3)ncc21` [Example 241, 7-Methyl-2-[(E)-2-phenylethenyl]-9-(pyrrolidin-1-ylcarbonyl)-7,9-dihydro-8H-purine-8-one], the inhibition at 0.1 µM was determined as 94% and the pIC50 was 7.37.
For `Cn1c(=O)n(C(=O)N2CCCC2)c2nc(/C=C/c3ccc(C(F)(F)F)cc3)ncc21` [Example 243, 7-methyl-9-(pyrrolidin-1-ylcarbonyl)-2-{(E)-2-[4-(trifluoromethyl)phenyl]ethenyl}-7,9-dihydro-8H-purine-8-one], in that order: 89% and 8.30.
For `Cn1c(=O)n(C(=O)N2CCCC2)c2nc(/C=C/c3cccc(C(F)(F)F)c3)ncc21` [Example 244, 7-Methyl-9-(pyrrolidin-1-ylcarbonyl)-2-{(E)-2-[3-(trifluoromethyl)phenyl]ethenyl}-7,9-dihydro-8H-purine-8-one], the inhibition at 0.1 µM was determined as 86% and the pIC50 was 7.96.
For `Cn1c(=O)n(C(=O)N2CCCC2)c2nc(/C=C/c3ccc(F)cc3)ncc21` [Example 245, 2-[(E)-2-(4-Fluorophenyl)ethenyl]-7-methyl-9-(pyrrolidin-1-ylcarbonyl)-7,9-dihydro-8H-purine-8-one], in that order: 80% and 7.24.
Turning to `Cn1c(=O)n(C(=O)N2CCCC2)c2nc(/C=C/c3cccc(F)c3)ncc21` [Example 246, 2-[(E)-2-(3-Fluorophenyl)ethenyl]-7-methyl-9-(pyrrolidin-1-ylcarbonyl)-7,9-dihydro-8H-purine-8-one], the inhibition at 0.1 µM is 98% and the pIC50 was 7.64.
In the case of `COc1cccc(/C=C/c2ncc3c(n2)n(C(=O)N2CCCC2)c(=O)n3C)c1` [Example 247, 2-[(E)-2-(3-Methoxyphenyl)ethenyl]-7-methyl-9-(pyrrolidin-1-ylcarbonyl)-7,9-dihydro-8H-purine-8-one], the inhibition at 0.1 µM was determined as 97% and the pIC50 is 7.41.
For `Cn1c(=O)n(C(=O)N2CCCC2)c2nc(-c3cccnc3)ncc21` [Example 248], in that order: 33% and below 7.00.
Regarding `Cn1c(=O)n(C(=O)N2CCCC2)c2nc(-c3ccc(F)nc3)ncc21` [Example 249], the inhibition at 0.1 µM stood at 55% and the pIC50 is 7.04.
For the molecule `COc1ccc(-c2ncc3c(n2)n(C(=O)N2CCCC2)c(=O)n3C)cn1` [Example 250, 2-(6-Methoxypyridin-3-yl)-7-methyl-9-(pyrrolidin-1-ylcarbonyl)-7,9-dihydro-8H-purine-8-one], the inhibition at 0.1 µM worked out at 78% and the pIC50 is 7.20.
For the molecule `COc1cncc(-c2ncc3c(n2)n(C(=O)N2CCCC2)c(=O)n3C)c1` [Example 251], the inhibition at 0.1 µM is 28% and the pIC50 is below 7.00.
With `Cn1c(=O)n(C(=O)N2CCCC2)c2nc(-c3ccncc3)ncc21` [Example 252], the inhibition at 0.1 µM was found to be 40% and the pIC50 is below 7.00.
Take `Cn1c(=O)n(C(=O)N2CCCC2)c2cnc(Cc3ccccc3)nc21` [Example 253, 2-benzyl-9-methyl-7-(pyrrolidin-1-ylcarbonyl)-7,9-dihydro-8H-purine-8-one]: the inhibition at 0.1 µM came to 100% and the pIC50 is 8.30.
For `Cn1c(=O)n(C(=O)N2CCCC2)c2cnc(Cc3ccccc3F)nc21` [Example 254, 2-(2-Fluorobenzyl)-9-methyl-7-(pyrrolidin-1-ylcarbonyl)-7,9-dihydro-8H-purine-8-one], in that order: 98% and 7.48.
As to `Cn1c(=O)n(C(=O)N2CCCC2)c2cnc(Cc3cccc(F)c3)nc21` [Example 255, 2-(3-Fluorobenzyl)-9-methyl-7-(pyrrolidin-1-ylcarbonyl)-7,9-dihydro-8H-purine-8-one], the inhibition at 0.1 µM was found to be 100% and the pIC50 is 7.85.
On to `Cn1c(=O)n(C(=O)N2CCCC2)c2cnc(Cc3ccc(F)cc3)nc21` [Example 256, 2-(4-Fluorobenzyl)-9-methyl-7-(pyrrolidin-1-ylcarbonyl)-7,9-dihydro-8H-purine-8-one], for which the inhibition at 0.1 µM came out at 99% and the pIC50 was 8.15.
With `Cc1ccccc1Cc1ncc2c(n1)n(C)c(=O)n2C(=O)N1CCCC1` [Example 257, 9-Methyl-2-(2-methylbenzyl)-7-(pyrrolidin-1-ylcarbonyl)-7,9-dihydro-8H-purine-8-one], the inhibition at 0.1 µM turned out to be 88% and the negative logarithm of the IC50 (pIC50) is 7.29.
For the molecule `Cc1cccc(Cc2ncc3c(n2)n(C)c(=O)n3C(=O)N2CCCC2)c1` [Example 258, 9-Methyl-2-(3-methylbenzyl)-7-(pyrrolidin-1-ylcarbonyl)-7,9-dihydro-8H-purine-8-one], the inhibition at 0.1 µM was 98% and the negative-log IC50 (pIC50) is 7.40.
As to `COc1cccc(Cc2ncc3c(n2)n(C)c(=O)n3C(=O)N2CCCC2)c1` [Example 261, 2-(3-Methoxybenzyl)-9-methyl-7-(pyrrolidin-1-ylcarbonyl)-7,9-dihydro-8H-purine-8-one], the inhibition at 0.1 µM amounted to 100% and the pIC50 was 7.80.
The corresponding values for `COc1ccc(Cc2ncc3c(n2)n(C)c(=O)n3C(=O)N2CCCC2)cc1` [Example 262, 2-(4-Methoxybenzyl)-9-methyl-7-(pyrrolidin-1-ylcarbonyl)-7,9-dihydro-8H-purine-8-one] are 99% and 7.62.
As to `Cn1c(=O)n(C(=O)N2CCCC2)c2cnc(Cc3ccc(-c4ccccc4)cc3)nc21` [Example 265, 2-(Biphenyl-4-ylmethyl)-9-methyl-7-(pyrrolidin-1-ylcarbonyl)-7,9-dihydro-8H-purine-8-one], the inhibition at 0.1 µM was 98% and the pIC50 is 8.05.
For the molecule `Cn1c(=O)n(C(=O)N2CCCC2)c2cnc(Cc3ccc(F)cc3F)nc21` [Example 266, 2-(2,4-Difluorobenzyl)-9-methyl-7-(pyrrolidin-1-ylcarbonyl)-7,9-dihydro-8H-purine-8-one], the inhibition at 0.1 µM came to 92% and the pIC50 is 7.39.
With `Cn1c(=O)n(C(=O)N2CCCC2)c2cnc(Cc3cc(F)ccc3F)nc21` [Example 267, 2-(2,5-Difluorobenzyl)-9-methyl-7-(pyrrolidin-1-ylcarbonyl)-7,9-dihydro-8H-purine-8-one], the inhibition at 0.1 µM turned out to be 99% and the pIC50 is 7.64.
For `Cn1c(=O)n(C(=O)N2CCCC2)c2cnc(Cc3c(F)cccc3F)nc21` [Example 268, 2-(2,6-Difluorobenzyl)-9-methyl-7-(pyrrolidin-1-ylcarbonyl)-7,9-dihydro-8H-purine-8-one], the inhibition at 0.1 µM is 93% and the pIC50 was 7.32.
